Source: patent US5569649A, “Anti-inflammatory treatment method” (Phytopharm (NA) N.V., priority 1994, dated 1996)
Entries after “also recorded” stand apart in the source; their conditions may differ.

Assays:
[1] = Rooperol metabolites in serum after oral hypoxoside (HPLC); assay type: in vivo, human; settings: for presence in serum (HPLC peak): 2 h after oral hypoxoside 1 g, one human volunteer
Method: The analytical column (4.6×250 mm) was packed with end-capped C8-bonded silica of 5 μm regular particle size (Whatman, Maidstone, England), while a guard column (2.1×75 mm) was packed with pellicular C18-bonded silica (Whatman). An in-line extraction pre-column (2.1×30 mm) was packed with preparative grade C18-bonded silica, 40 μm particle size (Analytichem International, Harbor City, Calif.).
Operating conditions involved a linear solvent gradient programmed at a flow rate of 1.5 ml/min starting with mobile phase A (0.05M KH2 PO4) to which 10% mobile phase B (acetonitrile-isopropanol, 80:20 v/v) was added after 0.01 min. This mixture was maintained for 1 minute after which a linear gradient of mobile phases A and B was begun, ending at 70% B after 16 minutes. The column temperature was maintained at 50° C.
The in-line extraction pre-column was loaded with sample (dissolved in 50 μl ethanol or in up to 200 μl of mobile phase A in the case of purified compounds; or a 200 μl aliquot of serum or urine from a human subject) and made up to 500 μl with an aqueous solution containing 8M guanidinium chloride and 1M ammonium sulfate. Blood samples were first converted to sera prior to analysis. The extraction column was flushed before and after sample introduction with 500 μl of aqueous 0.5M ammonium sulfate. The solutes trapped on the in-line extraction column were then eluted onto the analytical column by mobile phase after column switching and initiation of the analysis.
The detector was programmed to monitor the eluant at 260 nm and also to record absorption spectra from 200-400 nm.

[2] = Hypoxoside metabolites from urine after oral hypoxoside (HPLC); assay type: in vivo, human; settings: urine over 24 h after oral hypoxoside 1 g
Method: Example 7 describes the characterization of the rooperol metabolites which were excreted in the urine of the same subject. Urine from the same volunteer as above was collected over 24 hours following administration of the hypoxoside. The collected sample was filtered and purified by passage through a column bed of C18-bonded silica.
The urine from the volunteer in Example 6 was collected over the first 24 hours following administration of hypoxoside and then processed as follows. C18-bonded silica sorbent material (200 g, 40 μm) was pre-treated with methanol and water via a column bed. Filtered urine (5 l) was passed through the sorbent bed, followed by elution in sequence with water (400 ml), aqueous methanol (10% v/v, 400 ml), aqueous methanol (30% v/v, 800 ml) and finally with methanol (400 ml) and water (400 ml). The aqueous methanol fraction (30% v/v, 800 ml) was diluted with water (1600 ml) and again passed through the sorbent bed which was then eluted with water (400 ml) and finally with methanol (400 ml). The final methanol solution was evaporated under vacuum at 50° C. to an aqueous residue which was lyophilized to yield 1 g of a mixture of hypoxoside metabolites and endogenous urine components.
A suitable volume of filtered aqueous solution of this residue (10 mg/ml) was injected onto the in-line pre-column of the analytical HPLC system (Example 5) such that 3 fractions designated A, B, and C having the same retention times as the corresponding peaks observed in serum (Example 6) were collected at the column outlet (see FIG. 4). These fractions were rendered free of mobile phase buffer salts by standard reverse phase sorption technique and lyophilized to dryness.

[3] = Pharmacokinetics of hypoxoside metabolites, multiple-dose study; assay type: in vivo, human; settings: 800 mg H. rooperii methanol-extract 3 times daily for 9 days
Method: In a random, multiple-dose study, 6 subjects received 800 mg of H. rooperii methanol-extract 3 times daily for 9 days, and blood samples were collected daily for 12 days (with the exception that no samples were collected on day 11).

[4] = system: TNF-α production by lipopolysaccharide-stimulated human peripheral blood mononuclear cells; experiment: Inhibition of TNF-α production by LPS-stimulated human PBMCs (ELISA); assay type: cell-based; settings: for inhibition of TNF-α production, in words: LPS-stimulated human PBMCs, 1-10 μM rooperol
Method: (§1) In the study detailed in Example 4, cultured PBMCs enriched in monocytes were stimulated with lipopolysaccharide (20 μg/ml) in the presence and absence of rooperol at concentrations of 1-10 μM. After overnight incubation, the cells were collected and lysed, and the concentrations of TNF-α and IL-1β were measured by ELISA.
(§2) Peripheral blood mononuclear cells (PBMs) from normal human donors were separated on a Ficoll-Paque gradient and enriched in monocytes by adherence. PBMs were cultured in 12-well plates (2×10^6 cells/ml/well) in RPMI 1640 supplemented with 5% fetal calf serum.
(§3) Cultures were stimulated with lipopolysaccharide (LPS, 20 ug/ml), with or without rooperol at concentrations of 1, 2, 5, and 10 μM, and incubated overnight in 5% CO2. The cells were pelleted, resuspended in RPMI medium, and freeze-thawed five times to produce lysates. All samples were stored at -20° C. until cytokine concentrations were determined by commercial ELISA assays.

[5] = system: IL-1β production by lipopolysaccharide-stimulated human peripheral blood mononuclear cells; experiment: Inhibition of IL-1β production by LPS-stimulated human PBMCs (ELISA); assay type: cell-based; settings: for inhibition of IL-1β production, in words: activated human mononuclear cells, 1-10 μM rooperol
Method: as §1, §2, §3

[6] = HPLC of fecal specimen after oral hypoxoside; assay type: in vivo, human; settings: after oral hypoxoside 1 g
Method: In addition, a fecal specimen was also obtained from the subject and, following extraction, was analyzed by HPLC as above (FIG. 5).

[7] = Phase I dosing: hypoxoside and metabolites in serum; assay type: in vivo; settings: oral hypoxoside preparation 1.6, 2.4 and 3.2 g, 20 human subjects
Description: In a Phase I dose-ranging and toxicity study, 20 human subjects were given oral doses of a hypoxoside preparation obtained by the methanol extraction procedure described in Example 1. The dosages were 1.6, 2.4, and 3.2 g. Following administration of the hypoxoside preparation, blood samples were collected periodically from the subjects for measurement of hypoxoside and its metabolites. The samples were converted to sera and processed as described in Example 5. The only hypoxoside/rooperol compounds detected were the sulfate and glucuronide metabolites of rooperol noted in Examples 6 and 7.

[8] = Anti-inflammatory activity (general statement)
[9] = Susceptibility to air oxidation; assay type: physicochemical

Compound | presence in serum (HPLC peak) [1] | presence in urine (HPLC peak) [2] | relative abundance of metabolite in serum [3] | inhibition of TNF-α production, in words [4] | inhibition of IL-1β production, in words [5] | toxicity of metabolites, in words ([1]; oral hypoxoside, humans) | uptake into the bloodstream ([1]; oral hypoxoside, humans) | presence in fecal specimen (HPLC peak) [6] | detection in serum [7] | inhibition of TNF-α production ([4]; 10 μM rooperol, LPS 20 μg/ml) | IC50 ([4]; Homo sapiens, PBMC, LPS 20 μg/ml, overnight incubation, FIG. 2A, read-out: half-maximal inhibition of TNF-α production) [nM] | IC50 ([5]; Homo sapiens, PBMC, LPS 20 μg/ml, overnight incubation, FIG. 2B, read-out: half-maximal inhibition of IL-1β production) [nM] | anti-inflammatory activity [8] | susceptibility to air oxidation [9]
O=C(O)[C@H]1O[C@@H](Oc2ccc(C#CC/C=C/c3ccc(O[C@@H]4O[C@H](C(=O)O)[C@@H](O)[C@H](O)[C@H]4O)c(O)c3)cc2O)[C@H](O)[C@@H](O)[C@@H]1O [A, rooperol 4,4'-diglucuronide] | appearance of three new peaks | found in the urine sample | minor metabolites | – | – | – | – | – | – | – | – | – | – | –
O=S(=O)(O)Oc1ccc(C#CC/C=C/c2ccc(OS(=O)(=O)O)c(O)c2)cc1O [C, rooperol 4,4'-disulfate] | appearance of three new peaks | found in the urine sample | minor metabolites | – | – | – | – | – | – | – | – | – | – | –
OC[C@H]1O[C@@H](Oc2ccc(C#CC/C=C/c3ccc(O[C@@H]4O[C@H](CO)[C@@H](O)[C@H](O)[C@H]4O)c(O)c3)cc2O)[C@H](O)[C@@H](O)[C@@H]1O [hypoxoside] | None of these peaks corresponded to rooperol or hypoxoside | None of the other urinary peaks corresponded to rooperol or hypoxoside | – | inactive | inactive | metabolized to non-toxic derivatives | taken up rapidly into the bloodstream | No peaks were detectable | Neither hypoxoside nor rooperol could be detected | – | – | – | – | –
Oc1ccc(C#CC/C=C/c2ccc(O)c(O)c2)cc1O [rooperol] | None of these peaks corresponded to rooperol or hypoxoside | None of the other urinary peaks corresponded to rooperol or hypoxoside | – | dose-dependent inhibition; also recorded: potent inhibitor | dose-dependent inhibition; also recorded: potent inhibitor | – | – | Only one major peak was observed, with a retention time corresponding to that of rooperol | Neither hypoxoside nor rooperol could be detected | nearly complete inhibition | 1000 to 2000 | 1000 to 2000 | significant anti-inflammatory activity | susceptible to air oxidation
